Source: article PMC4013123 (PLoS ONE, 2014)

Legend:
[1] = target: WT MPH (methyl parathion hydrolase) (Ochrobactrum sp. M231, UniProt B2Z3X1)
Text: steady-state kinetics of purified enzyme (standard assay by reference) on WT MPH (methyl parathion hydrolase)

D10-MPH = D10-MPH (Ochrobactrum sp. M231, UniProt B2Z3X1)
Text: steady-state kinetics of purified enzyme (standard assay by reference) on D10-MPH

Sequence of WT MPH (methyl parathion hydrolase) (B2Z3X1 entry or part of it): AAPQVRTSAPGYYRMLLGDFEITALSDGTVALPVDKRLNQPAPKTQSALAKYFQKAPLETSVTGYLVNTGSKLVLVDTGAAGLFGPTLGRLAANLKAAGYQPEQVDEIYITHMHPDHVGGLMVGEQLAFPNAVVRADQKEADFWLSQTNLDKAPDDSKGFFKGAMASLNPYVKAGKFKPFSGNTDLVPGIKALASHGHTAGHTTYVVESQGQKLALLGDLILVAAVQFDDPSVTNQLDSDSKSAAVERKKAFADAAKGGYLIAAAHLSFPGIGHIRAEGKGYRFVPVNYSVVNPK
Sequence of D10-MPH (B2Z3X1 entry or part of it): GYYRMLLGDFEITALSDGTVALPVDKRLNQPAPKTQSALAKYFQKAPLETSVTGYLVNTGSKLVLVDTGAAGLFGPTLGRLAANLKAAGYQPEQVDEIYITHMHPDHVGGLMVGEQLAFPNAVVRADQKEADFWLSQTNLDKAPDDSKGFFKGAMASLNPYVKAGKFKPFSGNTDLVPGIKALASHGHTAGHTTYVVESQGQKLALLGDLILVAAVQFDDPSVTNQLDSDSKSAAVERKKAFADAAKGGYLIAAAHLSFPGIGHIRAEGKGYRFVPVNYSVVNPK

COP(=S)(OC)Oc1ccc([N+](=O)[O-])cc1 [methyl parathion]
Km [1]: 73.2 ± 4.7 µM
Km (D10-MPH): 86.9 ± 4.01 µM
